Holding throughout (format): in vivo
Conditions in all cases: 28 DAT

The subject of assay [1] is Echinochloa crus-galli (ECGCH). Nature of the assay: Post-emergence treatment of ECGCH, visual assessment of weed control. The text has this:
(§1) Seed of various weed species were sown and grown up to a 2-4 leaves stage. The said weeds are Echinochloa crus-galli (hereafter ECGCH), Leptochloa chinensis (hereafter LEFCH), Monochoria vaginalis (hereafter MOOVA) and Cyperus difformis (hereafter CYPDI).
(§2) Mixtures of pyribenzoxim and a partner herbicide were applied post emergence in a water diluted form using a laboratory sprayer. A visual assessment was made 28 days after treatment (DAT).
(§3) In the tables that follow ‘dose’ represents the dose rate in grammes per hectare of the active ingredient used; the figures for the weed control are percentage reductions in growth when compared with untreated controls; and CpdA represents pyribenzoxim.

The test system of assay [2] is Leptochloa chinensis (LEFCH). The assay is described as follows: Post-emergence treatment of LEFCH, visual assessment of weed control.
Source text: as §1, §2, §3

For assay [3], the system named is Monochoria vaginalis (MOOVA). The assay is described as follows: Post-emergence treatment of MOOVA, visual assessment of weed control.
Source text: as §1, §2, §3

For assay [4], the system named is Cyperus difformis (CYPDI). The assay is described as follows: Post-emergence treatment of CYPDI, visual assessment of weed control.
Source text: as §1, §2, §3

As to `COc1cc(OC)nc(NC(=O)NS(=O)(=O)Cc2ccccc2C(=O)O)n1` [bensulfuron, α-(4,6-dimethoxypyrimidin-2-ylcarbamoylsulfamoyl)-o-toluic acid], the “weed control, percentage reduction in growth vs untreated controls” value (from here on “weed control, percentage reduction”) in assay [1] (bensulfuron 6.5 g/ha alone) came out at 30%; in assay [1] (bensulfuron 13 g/ha alone) it was 50%; in assay [1] (bensulfuron 25 g/ha alone), 70%; in assay [2] (Table 4, LEFCH (2 leaf), bensulfuron 25 g/ha alone), 0%; in assay [2] (Table 4, LEFCH (2 leaf), bensulfuron 50 g/ha alone) it was 0%.
For the compound `CC(Oc1ccc(Oc2nc3ccc(Cl)cc3o2)cc1)C(=O)O` (racemic) [fenoxaprop, [(±)-2-[4-(6-chloro-1,3-benzoxazol-2-yloxy)phenoxy]propionic acid], the “weed control, percentage reduction” value in assay [3] (Table 7, MOOVA (2 leaf), fenoxaprop 15 g/ha alone) is on record as 0%; in assay [3] (Table 7, MOOVA (2 leaf), fenoxaprop 30 g/ha alone) it was 0%; in assay [3] (Table 7, MOOVA (2 leaf), fenoxaprop 60 g/ha alone), 30%; in assay [3] (Table 7, MOOVA (2 leaf), fenoxaprop 120 g/ha alone), 70%; in assay [2] (Table 2, fenoxaprop 15 g/ha alone), 0%; in assay [2] (Table 2, fenoxaprop 30 g/ha alone), 0%. The “weed control, percentage reduction” value stood at 0% in assay [2] (Table 2, fenoxaprop 60 g/ha alone); 0% in assay [4] (Table 10, fenoxaprop 30 g/ha alone); 0% in assay [4] (Table 10, fenoxaprop 60 g/ha alone).
`Cc1ccc(C(=O)COc2c(C(=O)c3ccc(Cl)c(C)c3Cl)c(C)nn2C)cc1` [benzofenap, 2-[4-(2,4-dichloro-m-toluoyl)-1,3-dimethylpyrazol-5-yloxy]-4-′methylacetophenone]: the “weed control, percentage reduction” value in assay [3] (Table 9, MOOVA (2 leaf), benzofenap 150 g/ha alone) is 0%; in assay [3] (Table 9, MOOVA (2 leaf), benzofenap 300 g/ha alone), 0%; in assay [2] (Table 6, LEFCH (2 leaf), benzofenap 600 g/ha alone), 10%; in assay [2] (Table 6, LEFCH (2 leaf), benzofenap 1200 g/ha alone), 20%.
Consider `CC(C)N1C(=O)c2ccccc2NS1(=O)=O` [bentazone, 3-isopropyl-1H-2,1,3-benzothiadiazin-4(3H)-one 2,2-dioxide], for which the “weed control, percentage reduction” value was 0% in assay [2] (Table 3, bentazone 375 g/ha alone); 20% in assay [2] (Table 3, bentazone 750 g/ha alone); 20% in assay [2] (Table 3, bentazone 1500 g/ha alone); 80% in assay [4] (Table 11, bentazone 375 g/ha alone); 80% in assay [4] (Table 11, bentazone 750 g/ha alone).
For the compound `COc1cc(OC)nc(Oc2cccc(Oc3nc(OC)cc(OC)n3)c2C(=O)ON=C(c2ccccc2)c2ccccc2)n1` [CpdA, benzophenone O-{2,6-bis[(4,6-dimethoxypyrimidyl)oxy]benzoyl}oxime], the “weed control, percentage reduction” value in assay [1] (CpdA 7.5 g/ha alone) is listed as 20%; in assay [3] (Table 7, MOOVA (2 leaf), CpdA 15 g/ha alone), 0%; in assay [3] (Table 7, MOOVA (2 leaf), CpdA 30 g/ha alone), 70%; in assay [3] (Table 8, MOOVA (2 leaf), CpdA 15 g/ha alone), 100%; in assay [3] (Table 8, MOOVA (2 leaf), CpdA 30 g/ha alone), 100%; in assay [3] (Table 9, MOOVA (2 leaf), CpdA 7.5 g/ha alone), 100%. Besides, the “weed control, percentage reduction” value turned out to be 0% in assay [2] (Table 2, CpdA 15 g/ha alone); 30% in assay [2] (Table 2, CpdA 30 g/ha alone); 30% in assay [2] (Table 2, CpdA 60 g/ha alone); 0% in assay [2] (Table 3, CpdA 15 g/ha alone); 30% in assay [2] (Table 3, CpdA 30 g/ha alone); 30% in assay [2] (Table 3, CpdA 60 g/ha alone). Also, the “weed control, percentage reduction” value is given as 50% in assay [2] (Table 4, LEFCH (2 leaf), CpdA 15 g/ha alone); 30% in assay [2] (Table 5, LEFCH (2 leaf), CpdA 7.5 g/ha alone); 50% in assay [2] (Table 5, LEFCH (2 leaf), CpdA 15 g/ha alone); 30% in assay [2] (Table 6, LEFCH (2 leaf), CpdA 7.5 g/ha alone); 50% in assay [2] (Table 6, LEFCH (2 leaf), CpdA 15 g/ha alone); 60% in assay [4] (Table 10, CpdA 15 g/ha alone). Moreover, the “weed control, percentage reduction” value in assay [4] (Table 11, CpdA 7.5 g/ha alone) is 0%.
